From US12036319B2, “Polyvalent sting activating compositions and uses thereof” (The Board of Regents of the University of Texas System, priority 2020, dated 2024)

Assays:
[1] = test system: resected human tissues (squamous cell carcinoma from the base of tongue, cervical tumor tissues, sentinel lymph node); experiment: STING activation in freshly resected human tissues; details: ex vivo injection, 24 h at 37° C.; cGAMP 80 ng, PC7A 50 μg
Source text: (§1) RT-qPCR. Total RNAs were extracted from cells or human tissues by using RNeasy mini kit (QIAGEN). RNA quantity and quality were confirmed using NanoDrop (DeNovix DS-11). Genomic DNA was removed and cDNA was synthesized using an iScript™ gDNA clear cDNA synthesis kit (Bio-Rad). Bio-Rad SoAdvanced™ universal SYBR green supermix and CFX connect real-time system were used for PCR analysis. Results were corrected by β-actin or GAPDH. DNA primers are listed as follows: • Mouse ifn-β: […]

[2] = test system: STING R232H variant in THP1 cells; experiment: IFN-β-Luc expression in THP1 cells harboring STING R232H; format: cell-based, human
Source text: (§2) WT or R232H THP-1 reporter cells were purchased from Invitrogen.

[3] = test system: B16-F10 melanoma tumor model; experiment: Interferon-stimulated gene expression in B16-F10 tumor-bearing mice; format: in vivo, mouse
Experimental: RT-qPCR. […] Results were corrected by β-actin or GAPDH.
Mice were subcutaneously inoculated with B16F10 melanoma cells (1.0×10^5) or TC-1 cells (1.0×10^5) into the right flank. […] Mice were euthanized one-day post-injection, and tumors and draining lymph nodes were collected. Total RNAs were extracted by TRIzol (Invitrogen), and the expressions of interferon-stimulated genes (ifn-β, cxcl10, tnf-α, and irf7) were measured via RT-qPCR.

[4] = test system: mutant STING-GFP in HEK293T cells; experiment: Downstream STING activation in HEK293T cells transfected with mutant STING plasmids; format: cell-based, human
Source text: as §2
(§3) Microscopy. […] In STING degradation assay, LysoTracker Red DND-99 (Thermo Scientific) was used to stain lysosomes in live cells. […] Samples were mounted in prolong gold antifade with Dapi stain (Thermo Scientific) and imaged using a Zeiss 700 confocal laser scanning microscope with a 63× oil objective. ImageJ was used to quantify co-localization by Pearson's correlation coefficient. Data are representative of at least twenty cells.
as §1

STING = experiment: Time course of STING puncta, signaling and degradation in GFP-STING MEF and THP1 cells; format: cell-based
Source text: as §3
Western blot analysis. […] Briefly, cells were lysed in SDS sample buffer (with protease and phosphatase inhibitor cocktail) and heated for denaturation. […] Electro transfer was performed using 100 V for 60 min on ice. After transfer, the membrane was blocked either in 5% non-fat milk or BSA (phosphorylated protein) for 1 h at room temperature, and incubated with primary antibody overnight at 4° C. HRP-linked secondary antibody (Bio-Rad) was used for 1 h at room temperature before detection on X-ray film (GE Healthcare). Membrane was stripped in stripping buffer for 30 min and reused for […] (Sigma Aldrich) detection.
as §1

TC-1 tumors = experiment: Tumor therapy, TC-1 tumor model; format: in vivo, mouse; details: TC-1, intratumoral, four injections, versus 5% glucose
Experimental: Tumor therapy experiments. Mice were subcutaneously inoculated with MC38 cells (1.0×10^6) or TC-1 cells (1.0×10^5) into the right flank. Tumor size was measured every other day via a digital caliper, and tumor volume was calculated as 0.5×length×width^2. […] Mice were injected 3× in MC38 model and 4× in TC-1 model with treatments spaced 4 d apart. Mice were euthanized at a tumor burden endpoint of 2,000 mm^3.

With `Nc1nc2c(ncn2[C@@H]2O[C@@H]3COP(=O)(O)OC4C(O)[C@H](n5cnc6c(N)ncnc65)O[C@@H]4COP(=O)(O)OC2C3O)c(=O)[nH]1` (stereo partly drawn) [cGAMP, cyclic guanosine monophosphate-adenosine monophosphate] the “ifn-β and cxcl10 mRNA expression over control” value [1] was “marginal effect”, the IFN-β-Luc expression [2] was “abrogated” and the “STING activation in draining lymph nodes” value ([3]; intratumoral injection, cGAMP high dose 2.5 μg) was “minimal STING activation”. The “interferon-stimulated gene expression (ifn-β, cxcl10, tnf-α, irf7) in tumor” value ([3]; single intratumoral injection, 24 hours, PC7A 50 μg, cGAMP low dose 0.5 μg) was “failed to induce interferon-stimulated gene expressions”, the “condensate structures, TBK1 phosphorylation and ifn-β/cxcl10 expression” value [4] was “did not impact cGAMP-mediated STING activation” and the “time of peak immune response after stimulation” value (STING) was “around 6 h”. The “time to STING degradation” value (STING; STING-GFP MEFs) was at most 12 h, the “p-TBK1/p-IRF3 production and proinflammatory cytokine expression” value (STING; in the presence of brefeldin A (BFA, 10 μM)) was “fail to trigger p-TBK1/p-IRF3 production and proinflammatory cytokine expression” and the “extension of median survival” value (TC-1 tumors) was 4 days.
